Measured values taken from PMC4474691, “Leukemia-Associated Mutations in Nucleophosmin Alter Recognition by CRM1: Molecular Basis of Aberrant Transport” (PLoS ONE, 2015).
Read-outs that look alike come from different tables or passages of the source. Each block holds one substance with its values, some of them ahead of it.

What was measured:
[1] = molecular target: T1, CRM1^HA (Mus musculus, UniProt Q6P5F9, L431A/V430A/V432A); test: Isothermal titration calorimetry, CRM1^HA / NES; format: binding; details: ITC, NES ligand (35–180 μM) titrated onto CRM1^HA (2–14 μM), 20°C, 20 mM HEPES pH 7.4, 50 mM NaCl, 1 mM TCEP, 1 mM MgCl2; independent binding sites model; read-out: KD
T1 construct: His-ZZ (cleaved yes); made in house; host or cells: Escherichia coli BL21-CodonPlus (DE3)
T1 sequence (Q6P5F9 1-1062 V430A/L431A/V432A limits assumed): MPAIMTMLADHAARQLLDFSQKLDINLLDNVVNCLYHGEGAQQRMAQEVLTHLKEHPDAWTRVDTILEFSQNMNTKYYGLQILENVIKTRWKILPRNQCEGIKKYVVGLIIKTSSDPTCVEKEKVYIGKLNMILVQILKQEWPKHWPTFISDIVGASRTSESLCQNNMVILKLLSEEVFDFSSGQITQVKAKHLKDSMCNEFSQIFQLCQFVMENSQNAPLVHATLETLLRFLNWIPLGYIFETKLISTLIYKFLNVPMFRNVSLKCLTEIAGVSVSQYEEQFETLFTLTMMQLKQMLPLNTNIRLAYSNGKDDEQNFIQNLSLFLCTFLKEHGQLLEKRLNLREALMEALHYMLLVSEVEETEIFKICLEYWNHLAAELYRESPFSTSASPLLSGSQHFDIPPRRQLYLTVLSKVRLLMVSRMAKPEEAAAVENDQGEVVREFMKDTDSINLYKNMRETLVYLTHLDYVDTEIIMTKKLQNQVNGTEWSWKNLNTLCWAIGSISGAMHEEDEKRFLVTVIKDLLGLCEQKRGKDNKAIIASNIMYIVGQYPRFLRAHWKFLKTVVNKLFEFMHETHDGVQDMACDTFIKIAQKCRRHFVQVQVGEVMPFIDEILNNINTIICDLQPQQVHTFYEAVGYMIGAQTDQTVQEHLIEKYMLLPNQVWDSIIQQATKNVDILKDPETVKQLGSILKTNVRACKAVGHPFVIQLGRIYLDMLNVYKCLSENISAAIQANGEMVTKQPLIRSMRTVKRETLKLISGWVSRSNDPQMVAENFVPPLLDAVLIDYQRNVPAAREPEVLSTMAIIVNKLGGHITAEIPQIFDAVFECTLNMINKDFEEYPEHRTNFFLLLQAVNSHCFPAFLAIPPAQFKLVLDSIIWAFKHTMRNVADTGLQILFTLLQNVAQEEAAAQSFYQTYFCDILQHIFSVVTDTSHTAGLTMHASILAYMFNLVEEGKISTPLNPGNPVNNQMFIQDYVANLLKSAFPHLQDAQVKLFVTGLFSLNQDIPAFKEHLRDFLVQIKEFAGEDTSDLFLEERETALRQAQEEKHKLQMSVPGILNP
Description: Isothermal titration calorimetry (ITC)
ITC measurements were carried out using a VIP-ITC MicroCalorimeter (MicroCal, Inc., Northampton, MA). TFP and YFP constructs, as well as CRM1^HA, were dialyzed in a buffer containing 20 mM HEPES, pH 7.4, 50 mM NaCl, 1 mM TCEP, 1 mM MgCl2, and degassed prior to the experiment. Untagged peptides (AS: QDLCLAVEEVSLRK, AL: EAIQDLCLAVEEVSLRK, ES: QDLWQSLAQVSLRK and EL: EAIQDLWQSLAQVSLRK), N-acetylated and 95% pure, were purchased from Proteogenix (Schiltigheim, France) and resuspended in the ITC buffer. Measurements were performed at 20°C. TFP-NES, YFP-NES or NES peptides at 35–180 μM were titrated onto CRM1^HA at 2–14 μM. Injections of 6 μL were performed at 320 seconds interval (the first injection always was of 1 μL and is not considered in data analysis). To determine the thermodynamic parameters of NPM / importin interaction, importin α, importin Δα or importin α/β at 45–60 μM were titrated onto NPM (1–1.2 μM pentamer) in 50 mM Tris/HCl, pH 7.5, 100 mM NaCl, 2 mM TCEP, and 10% glycerol. […] “Reverse” titrations, where 20–30 μM NPM was titrated onto 7–10 μM of the different importins were also performed and yielded similar results.
The reaction heat of each injection is related to the calorimetric enthalpy of binding, ΔH^0. The binding isotherms, ΔH^0 vs. molar ratio, were analyzed with an independent binding sites model using MicroCal Origin software. The fit of the binding curve yields the binding constant KA (KD = 1/KA) and the enthalpy ΔH^0 of the binding reaction. The Gibbs free energy of binding ΔG^0 and the entropy ΔS^0 are determined from the basic thermodynamic expressions: ΔG^0 = -RTlnKA = ΔH^0−TΔS^0, where R and T are the gas constant and the absolute temperature, respectively.
Fig 5 Analysis of CRM1^HA/TFP-NES interaction by ITC. Isothermal titration of CRM1^HA with TFP-mutE(NES). […] The titration of negative control TFP-Cter (180 μM) onto CRM1^HA (14 μM) (circles) is also shown for comparison.

[2] = molecular target: T1, CRM1^HA; details: previously described, CRM1^HA binding to YFP-PKI(NES); cited from earlier work
Source text: We next used the TFP-(NES) constructs to monitor CRM1^HA binding to each motif, using the change in fluorescence anisotropy upon complex formation as a readout (Fig 4B), as previously described.

[3] = molecular target: T1, CRM1^HA; test: Ni-NTA chromatography of TFP-NES / CRM1^HA complex formation; format: binding; details: 2.5 mg His-tagged TFP construct on 1 mL Histrap FF, 1 mL CRM1^HA 18 μM; 50 mM Tris/HCl pH 8.0, 500 mM NaCl; SDS-PAGE
Source text: Although the relative potency of the NESs acquired by the different NPM mutants has been compared using an in vivo export assay, their CRM1-binding affinities have not yet been determined. We cloned the NESs of mutant A and E as C-terminal fusions to a teal fluorescent protein (TFP) (Fig 4A). As a reference, we generated an equivalent construct with the well-characterized NES of protein kinase inhibitor (PKI). We first tested the binding of CRM1^HA to the TFP-NES constructs using Ni-NTA chromatography. His-tagged TFP constructs were bound to the Ni-NTA column, and an excess of untagged CRM1^HA was then injected (S4 Fig).
Supplementary file pone.0130610.s004.tif: S4 Fig TFP-NES / CRM1^HA complex formation shown by Ni-NTA chromatography. 2.5 mg of the His-tagged TFP construct were loaded on a 1 mL Histrap FF (GE Healthcare) in buffer 50 mM Tris/HCl, pH 8.0, 500 mM NaCl, 1 mM TCEP, 2 mM MgCl2, 5% glycerol, containing 15 mM imidazole. After washing with the same buffer, 1 mL of CRM1^HA at 18 μM was injected at 0.1 mL/min flow rate. Unbound CRM1^HA was collected, and then bound proteins were eluted with 2 M imidazole. SDS-PAGE of elution fractions: Unbound (free) CRM1^HA and the fraction eluted with imidazole, containing both the His-tagged TFP construct along with bound CRM1^HA. (TIF) Click here for additional data file.

[4] = test system: wild type CRM1; test: Fluorescence anisotropy binding assay, wild type CRM1; design: species or system mouse; details: TFP-PKI 50 nM, 25°C, 20 mM Tris/HCl pH 7.4, wild type CRM1, compared with CRM1^HA
Source text: For recombinant production in E. coli, we subcloned wild type NPM, as well as mutants A and E, as N-terminal (His)10 –ZZ tagged constructs in pTG-A20 vector [22]. The original clone of wild type mouse CRM1, N-terminally fused to a His—ZZ tag was a kind gift of Dr. Dirk Görlich (Max Planck Institute for Biophysical Chemistry, Göttingen). We generated the high affinity CRM1 mutant (CRM1^HA) from a clone provided by Dr. Murray Stewart (MRC Laboratory of Molecular Biology, Cambridge). […]
Fluorescence anisotropy binding assays
To estimate CRM1 binding affinities for NES motifs we monitored binding with a fluorescence-polarization assay based on previously described approaches. The increase in fluorescence anisotropy of TFP/YFP when the TFP/YFP-NES construct (50 nM) binds to 0–60 μM CRM1 (either CRM^HA or wild type) was recorded at 25°C with a 8100 SLM-Aminco spectrofluorometer in buffer 20 mM Tris/HCl, pH 7.4, 50 mM NaCl, 5 mM DTT, 2 mM MgCl2. […]
Fig 4 Binding of CRM1 to TFP-NES constructs. […] Fraction bound was calculated from the relative increase in fluorescence anisotropy of TFP (λexc 463 nm, λem 500 nm). […]
We next used the TFP-(NES) constructs to monitor CRM1^HA binding to each motif, using the change in fluorescence anisotropy upon complex formation as a readout (Fig 4B), as previously described. […]

[5] = test system: CRM1; details: cited from earlier work
Source text: Two sequence motifs in the core domain of NPM (residues 42–61 and 94–102) (Fig 1) have been investigated as candidate NESs. In addition, we have detected a further putative NES in the C-terminal region (see below). However, it is still unclear to what extent any of these sequences represents NPM physiological NESs.

[6] = molecular target: importin α/β; details: importin α/β binding of nucleoplasmin; cited from earlier work
Source text: Our study has explored the molecular determinants of both NPM export (CRM1/NES) and import (importin α/β/NLS). […] This lower affinity could be related to the fact that NPM NLS includes one basic residue less in the major cluster of the bipartite motif than NP NLS. […] This, together with the very low affinity of CRM1 for wild type NPM and significant avidity for nucleolar comp ...

Kd [1]: 18 ± 3 nM
Substance: YFP-PKI(NES): previously described YFP-PKI(NES) construct (LALKLAGLDI; fusion to YFP (carrier omitted); linker stated to be 2 residues longer than in TFP construct) [reference compound]
Kd [2]: 25 nM

binding of wild type CRM1 [4]: much weaker than that of CRM1^HA
Substance: LALKLAGLDI [TFP-PKI(NES)]
CRM1^HA binding in Ni-NTA chromatography [3]: stronger than its binding to TFP- mutE(NES)

Substance: residues 42–61: candidate NES motif in the core domain of NPM (LSLRTVSLGAGAKDELHIVE; UniProt P06748 42-61, looked up, fragment)
binding to CRM1 [5]: no binding to CRM1

Substance: nucleoplasmin: homologous protein nucleoplasmin
Kd [6]: 57 nM
